Source: patent US20250051362A1, “SUBSTITUTED FUSED HETEROCYCLIC COMPOUND, AND PREPARATION METHOD THEREFOR AND USE THEREOF” (Shanghai Annova Biotechnology Co., Ltd., priority 2021, published 2025)

Columns and labels:
[1] = target: ATR kinase (Homo sapiens (Human), UniProt Q13535); assay: In vitro ATR kinase inhibition assay (Mobility Shift Assay, Caliper EZ Reader); type: biochemical; details: for IC50: ATP concentration of Km, 4 h at 28° C.; for ATR IC50 value (ratio to Example Compound 1): ATR IC50 of comparative compound divided by that of Example Compound 1 (5.5 nM)
ATR kinase, sequence (Q13535 whole entry): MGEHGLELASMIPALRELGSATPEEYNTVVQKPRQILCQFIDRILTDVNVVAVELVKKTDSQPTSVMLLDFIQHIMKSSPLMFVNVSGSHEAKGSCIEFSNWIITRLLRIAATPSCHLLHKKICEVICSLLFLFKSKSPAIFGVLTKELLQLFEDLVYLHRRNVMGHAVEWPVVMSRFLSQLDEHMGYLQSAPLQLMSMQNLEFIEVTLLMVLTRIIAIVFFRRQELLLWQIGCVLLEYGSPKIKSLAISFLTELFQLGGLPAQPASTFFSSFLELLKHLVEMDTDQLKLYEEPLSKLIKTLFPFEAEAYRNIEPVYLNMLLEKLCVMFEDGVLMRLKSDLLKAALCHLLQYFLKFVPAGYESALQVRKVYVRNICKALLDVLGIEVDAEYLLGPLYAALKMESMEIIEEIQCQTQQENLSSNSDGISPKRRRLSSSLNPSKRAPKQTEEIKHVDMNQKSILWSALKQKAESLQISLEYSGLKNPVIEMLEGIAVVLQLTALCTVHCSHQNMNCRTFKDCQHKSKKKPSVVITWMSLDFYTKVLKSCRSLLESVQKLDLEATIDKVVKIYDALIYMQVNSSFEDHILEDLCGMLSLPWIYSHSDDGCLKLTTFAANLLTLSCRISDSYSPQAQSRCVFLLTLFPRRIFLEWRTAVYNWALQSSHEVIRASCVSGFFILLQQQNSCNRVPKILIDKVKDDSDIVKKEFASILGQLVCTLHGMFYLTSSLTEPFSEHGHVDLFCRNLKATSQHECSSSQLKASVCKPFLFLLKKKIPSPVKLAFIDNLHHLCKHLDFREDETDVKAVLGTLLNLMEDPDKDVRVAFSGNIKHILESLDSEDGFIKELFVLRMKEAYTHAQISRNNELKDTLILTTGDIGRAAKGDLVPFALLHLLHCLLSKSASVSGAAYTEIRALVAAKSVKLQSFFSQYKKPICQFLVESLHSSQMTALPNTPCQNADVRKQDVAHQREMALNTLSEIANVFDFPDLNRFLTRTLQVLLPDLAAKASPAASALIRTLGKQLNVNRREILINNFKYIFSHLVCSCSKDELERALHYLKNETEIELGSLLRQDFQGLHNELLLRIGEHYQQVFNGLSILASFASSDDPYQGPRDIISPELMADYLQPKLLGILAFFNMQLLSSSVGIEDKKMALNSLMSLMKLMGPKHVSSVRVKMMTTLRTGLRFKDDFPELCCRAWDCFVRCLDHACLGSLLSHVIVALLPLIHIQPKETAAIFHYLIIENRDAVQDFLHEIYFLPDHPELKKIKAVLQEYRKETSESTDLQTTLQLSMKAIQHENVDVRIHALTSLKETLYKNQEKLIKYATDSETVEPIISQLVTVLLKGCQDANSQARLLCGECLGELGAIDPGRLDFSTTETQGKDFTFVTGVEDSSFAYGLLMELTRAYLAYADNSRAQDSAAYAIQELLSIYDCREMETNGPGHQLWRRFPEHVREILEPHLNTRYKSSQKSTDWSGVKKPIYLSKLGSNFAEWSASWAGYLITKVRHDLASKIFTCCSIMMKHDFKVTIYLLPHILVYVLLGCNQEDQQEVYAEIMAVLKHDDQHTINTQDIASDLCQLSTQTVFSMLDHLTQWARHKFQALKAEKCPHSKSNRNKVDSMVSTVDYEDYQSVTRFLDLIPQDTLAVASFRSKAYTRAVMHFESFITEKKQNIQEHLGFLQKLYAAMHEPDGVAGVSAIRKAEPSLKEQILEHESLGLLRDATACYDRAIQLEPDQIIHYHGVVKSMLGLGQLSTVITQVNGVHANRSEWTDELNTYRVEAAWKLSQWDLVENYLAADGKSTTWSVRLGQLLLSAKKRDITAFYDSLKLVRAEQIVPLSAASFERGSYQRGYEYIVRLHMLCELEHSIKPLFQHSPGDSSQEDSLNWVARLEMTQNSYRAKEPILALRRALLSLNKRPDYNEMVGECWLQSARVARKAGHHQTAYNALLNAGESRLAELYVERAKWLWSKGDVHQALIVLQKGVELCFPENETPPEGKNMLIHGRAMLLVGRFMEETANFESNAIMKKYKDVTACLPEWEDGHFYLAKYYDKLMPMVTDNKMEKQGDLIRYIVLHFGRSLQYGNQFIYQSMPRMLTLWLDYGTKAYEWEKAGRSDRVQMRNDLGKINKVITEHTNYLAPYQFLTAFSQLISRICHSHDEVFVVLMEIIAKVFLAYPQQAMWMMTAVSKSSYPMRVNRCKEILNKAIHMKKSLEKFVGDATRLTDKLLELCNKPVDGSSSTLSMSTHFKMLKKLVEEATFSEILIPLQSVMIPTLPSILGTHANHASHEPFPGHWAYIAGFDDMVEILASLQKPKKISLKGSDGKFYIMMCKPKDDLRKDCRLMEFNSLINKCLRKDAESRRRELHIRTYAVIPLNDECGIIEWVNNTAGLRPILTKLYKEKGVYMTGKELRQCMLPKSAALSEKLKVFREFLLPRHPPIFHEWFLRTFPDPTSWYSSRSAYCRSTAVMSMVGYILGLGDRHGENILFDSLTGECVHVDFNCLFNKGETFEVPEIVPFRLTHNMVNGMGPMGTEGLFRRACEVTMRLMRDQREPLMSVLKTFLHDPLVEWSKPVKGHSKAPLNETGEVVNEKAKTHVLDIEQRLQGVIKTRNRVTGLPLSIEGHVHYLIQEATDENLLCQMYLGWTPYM
ATR kinase, sequence (Q8WXE1 whole entry partner): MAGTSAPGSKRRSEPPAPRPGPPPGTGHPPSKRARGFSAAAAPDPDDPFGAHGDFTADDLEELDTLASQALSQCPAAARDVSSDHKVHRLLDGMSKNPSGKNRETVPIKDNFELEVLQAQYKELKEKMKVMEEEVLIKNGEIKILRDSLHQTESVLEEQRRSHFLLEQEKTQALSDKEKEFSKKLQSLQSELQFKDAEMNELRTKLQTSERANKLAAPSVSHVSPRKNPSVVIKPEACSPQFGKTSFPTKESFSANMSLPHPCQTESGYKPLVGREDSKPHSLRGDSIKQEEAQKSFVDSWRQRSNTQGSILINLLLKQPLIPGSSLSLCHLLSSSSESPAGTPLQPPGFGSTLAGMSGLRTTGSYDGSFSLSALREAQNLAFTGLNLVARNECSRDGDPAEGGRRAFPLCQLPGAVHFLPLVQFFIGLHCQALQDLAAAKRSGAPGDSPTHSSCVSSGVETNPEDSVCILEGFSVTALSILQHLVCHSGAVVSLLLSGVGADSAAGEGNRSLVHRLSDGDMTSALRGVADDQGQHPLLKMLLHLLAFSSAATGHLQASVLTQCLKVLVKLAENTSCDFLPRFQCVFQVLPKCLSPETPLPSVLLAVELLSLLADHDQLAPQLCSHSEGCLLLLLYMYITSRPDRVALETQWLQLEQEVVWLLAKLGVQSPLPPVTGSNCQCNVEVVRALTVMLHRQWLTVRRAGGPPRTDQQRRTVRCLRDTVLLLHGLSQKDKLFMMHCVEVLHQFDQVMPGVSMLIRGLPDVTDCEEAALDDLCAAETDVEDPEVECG
Experimental: Experimental method: The inhibitory activity of the compounds on ATR kinase in vitro was determined by Mobility Shift Assay at an ATP concentration of Km using Caliper EZ Reader as a mobility shift assaying technology based on microfluidic chip technology.
Experimental procedure: (1) The compounds to be tested were dissolved in DMSO and serially diluted 4× for a total of 10 concentrations; (2) 0.06 μL of the compounds at different concentrations were pipetted into a 384-well plate using an Echo pipetting system; (3) a 2× kinase solution with a concentration of 10 nM ATR kinase was prepared from the ATR kinase and the 1× kinase buffer; and a 2× substrate solution with a concentration of 6 μM 5-FAM-AK-17 and 4 μM ATP was prepared from 5-FAM-AK-17, ATP and the 1× kinase buffer; (4) 10 μL of the 2× kinase solution was added into the 384-well plate and incubated for 10 min at room temperature; 10 μL of the 2× substrate solution was then added and incubated for 4 h at 28° C.; (5) 30 μL of the termination buffer was added to terminate the reaction, and then the 384-well plate was put into the Caliper EZ Reader to read the conversion rate data.

[2] = test system: human colon cancer LoVo cells; assay: Cell proliferation inhibition assay (CellTiter-Glo); type: cell-based; details: for LoVo IC50 value (ratio to Example Compound 1): LoVo IC50 of comparative compound divided by that of Example Compound 1 (0.66 μM); for Emax: Homo sapiens, read-out: Max Inhibition; for Emax / IC50 / Max Inhibition: LoVo cells, 96 hours incubation
Description: Experimental method: A CellTiter-Glo cell viability assay kit was used to test the inhibitory effect of the compounds on the in vitro proliferation of human colon cancer LoVo cells.
Experimental materials: LoVo cells (ATCC, Cat. No. CCL-29); F-12K medium (Invitrogen, Cat. No. 21127-022); fetal bovine serum (Biological Industries, Cat. No. 04-002-1A); GlutaMAX (Gibco, Cat. No. 35050-061); 0.25% trypsin-EDTA (Invitrogen, Cat. No. 25200-072); CellTiter-Glo kit (Promega, Cat. No. G7558).
Experimental procedure: (1) F-12K medium, fetal bovine serum and GlutaMAX were formulated into a complete medium for culturing LoVo cells; (2) well-grown LoVo cells were taken, digested with trypsin and transferred to a centrifuge tube, and centrifuged; the supernatant was discarded, and cells were resuspended by adding a fresh medium and counted by a Vi-CELL XR cell counter; the density of the cell suspension was adjusted to 25,000 to 30,000 cells/mL, and the cell suspension was added at 100 μL/well in a 96-well cell culture plate, while a blank control group was set up with no cells added, and the cell culture plate was incubated in a carbon dioxide incubator overnight; (3) a DMSO solution of the compound to be tested was dispensed into the above 96-well cell culture plate using an HP D300 ultra-micro sampler, with 0.5 μL of the solution per well and 10 concentrations for each compound (3× dilution), while a DMSO control group with no compound added was set up, and the plate was continued to be incubated in a carbon dioxide incubator for 96 hours; (4) the cell culture plate was taken out and equilibrated to room temperature, with 100 μL of a CellTiter-Glo reagent added to each well, and then the plate was kept away from light, shaken for 10 minutes and then incubated for 10 minutes; (5) the cell culture plate was put into EnSpire for plate reading, and the luminescence value RLU was recorded.
Data processing: (1) The inhibition rate was calculated from the luminescence values: “RLUDMSO” is the luminescence value of the DMSO control group without compound, “RLUblank” is the luminescence value of the blank control group without cells, and “RLUcompound” is the luminescence value of the compound test group, and the inhibition rate=[1−(RLUcompound−RLUblank)/(RLUDMSO−RLUblank)]×100%; (2) with curve fitting using the Excel add-on XLFit, the IC50 value was calculated.

SMILES | IC50 [1] | Emax [2] | further results
CC(n1ccc2c(N3CCOC[C@H]3C)cc(-c3ccnc4[nH]ccc34)nc21)S(C)(=O)=O (some centres unmarked) [Compound 5′, reference compound] | 15 nM | – | ATR IC50 value (ratio to Example Compound 1) [1]: 15/5.5 = 2.73; LoVo IC50 value (ratio to Example Compound 1) [2]: 1.88/0.66 = 2.85
C[C@@H]1COCCN1c1cc(-c2ccnc3[nH]ccc23)nc2c1ccn2CS(C)(=O)=O [Compound 4′, reference compound] | 20 nM | – | ATR IC50 value (ratio to Example Compound 1) [1]: 20/5.5 = 3.64; LoVo IC50 value (ratio to Example Compound 1) [2]: 2.34/0.66 = 3.55
C[C@@H]1COCCN1c1nc(-c2cccc3[nH]ccc23)nc2c1ccn2S(C)(=O)=O [Compound 18, (R)-4-(2-(1H-indol-4-yl)-7-(methylsulfonyl)-7H-pyrrolo[2,3-d]pyrimidin-4-yl)-3-methylmorpholine] | 2.3 nM | 92% | –
C[C@@H]1COCCN1c1cc(-c2ccnc3[nH]ccc23)nc2c1ccn2S(=O)(=O)N(C)C [Compound 16, (R)-N,N-dimethyl-4′-(3-methylmorpholinyl)-1H,1′H-[4,6′-dipyrrolo[2,3-b]pyridine]-1′-sulfamide] | 17 nM | – | IC50 [2]: 1820 nM; Max Inhibition [2]: 93%
CNc1nc2ccccc2n1-c1nc(N2CCOC[C@H]2C)c2ccn(S(C)(=O)=O)c2n1 [Compound 28, (R)-N-methyl-1-(4-(3-methylmorpholinyl)-7-(methylsulfonyl)-7H-pyrrolo[2,3-d]pyrimidin-2-yl)-1H-benzo[d]imidazol-2-amine] | 4.1 nM | – | IC50 [2]: 100 nM; Max Inhibition [2]: 92%
C[C@@H]1COCCN1c1nc(-c2ccnc3[nH]ccc23)nc2c1ccn2S(=O)(=O)N(C)C [Compound 34, (R)-N,N-dimethyl-4-(3-methylmorpholinyl)-2-(1H-pyrrolo[2,3-b]pyridin-4-yl)-7H-pyrrolo[2,3-d]pyrimidine-7-sulfamide] | 7.1 nM | – | IC50 [2]: 290 nM; Max Inhibition [2]: 93%
C[C@@H]1COCCN1c1cc(-c2nc3ccccc3[nH]2)nc2c1ccn2S(C)(=O)=O [Compound 11, (R)-4-(6-(1H-benzo[d]imidazol-2-yl)-1-(methylsulfonyl)-1H-pyrrolo[2,3-b]pyridin-4-yl)-3-methylmorpholine] | 823 nM | – | –
C[C@@H]1COCCN1c1cc(-c2cncc3[nH]ccc23)nc2c1ccn2S(C)(=O)=O [Compound 3, (R)-3-methyl-4-(1-(methylsulfonyl)-6-(1H-pyrrolo[2,3-c]pyridin-4-yl)-1H-pyrrolo[2,3-b]pyridin-4-yl)morpholine] | 10 nM | 93% | –
C[C@@H]1COCCN1c1nc(-c2ccnc3[nH]ccc23)nc2c1ncn2S(C)(=O)=O [Compound 22, (R)-3-methyl-4-(9-(methylsulfonyl)-2-(1H-pyrrolo[2,3-b]pyridin-4-yl)-9H-purin-6-yl)morpholine] | 10 nM | 93% | –
COc1cc(-c2nc(N3CCOC[C@H]3C)c3ccn(S(C)(=O)=O)c3n2)c2cc[nH]c2c1 [Compound 32, (R)-4-(2-(6-methoxy-1H-indol-4-yl)-7-(methylsulfonyl)-7H-pyrrolo[2,3-d]pyrimidin-4-yl)-3-methylmorpholine] | 5.3 nM | 95% | –
Cc1cc(-c2nc(N3CCOC[C@H]3C)c3ccn(S(C)(=O)=O)c3n2)c2cc[nH]c2c1 [Compound 29, (R)-3-methyl-4-(2-(6-methyl-1H-indol-4-yl)-7-(methylsulfonyl)-7H-pyrrolo[2,3-d]pyrimidin-4-yl)morpholine] | 2.3 nM | 94% | –
C[C@@H]1COCCN1c1cc(-c2ccnc3[nH]cnc23)nc2c1ccn2S(C)(=O)=O [Compound 13, (R)-4-(6-(3H-imidazo[4,5-b]pyridin-7-yl)-1-(methylsulfonyl)-1H-pyrrolo[2,3-b]pyridin-4-yl)-3-methylmorpholine] | 196 nM | – | –
CC(n1cnc2c(N3CCOC[C@H]3C)nc(-c3cncc4[nH]ccc34)cc21)S(C)(=O)=O (some centres unmarked) [Compound 7′, reference compound] | 28 nM | – | –
CCS(=O)(=O)n1ccc2c(N3CCOC[C@H]3C)nc(-c3ccnc4[nH]ccc34)nc21 [Compound 33, (R)-4-(7-(ethylsulfonyl)-2-(1H-pyrrolo[2,3-b]pyridin-4-yl)-7H-pyrrolo[2,3-d]pyrimidin-4-yl)-3-methylmorpholine] | 5 nM | 92% | –
C[C@@H]1COCCN1c1cc(-c2cc(F)cc3[nH]ccc23)nc2c1ccn2S(C)(=O)=O [Compound 7, (R)-4-(6-(6-fluoro-1H-indol-4-yl)-1-(methylsulfonyl)-1H-pyrrolo[2,3-b]pyridin-4-yl)-3-methylmorpholine] | 3.2 nM | 95% | –
C[C@@H]1COCCN1c1cc(-c2ccnc3[nH]ccc23)nc2c1ncn2S(C)(=O)=O [Compound 24, (R)-3-methyl-4-(3-(methylsulfonyl)-5-(1H-pyrrolo[2,3-b]pyridin-4-yl)-3H-imidazo[4,5-b]pyridin-7-yl)morpholine] | 15 nM | 92% | –
C[C@@H]1COCCN1c1cc(-c2ncnc3[nH]ccc23)nc2c1ccn2S(C)(=O)=O [Compound 12, (R)-3-methyl-4-(1-(methylsulfonyl)-6-(7H-pyrrolo[2,3-d]pyrimidin-4-yl)-1H-pyrrolo[2,3-b]pyridin-4-yl)-morpholine] | 130 nM | – | –
C[C@@H]1COCCN1c1cc(-c2ccc(F)c3[nH]ccc23)nc2c1ccn2S(C)(=O)=O [Compound 8, (R)-4-(6-(7-fluoro-1H-indol-4-yl)-1-(methylsulfonyl)-1H-pyrrolo[2,3-b]pyridin-4-yl)-3-methylmorpholine] | 78 nM | – | –
C[C@@H]1COCCN1c1cc(-c2ccn[nH]2)nc2c1ccn2S(C)(=O)=O [Compound 9, (R)-3-methyl-4-(1-(methylsulfonyl)-6-(1H-pyrazol-5-yl)-1H-pyrrolo[2,3-b]pyridin-4-yl)morpholine] | 311 nM | – | –
C[C@@H]1COCCN1c1cc(-c2ccnc3[nH]ccc23)nc2c1ccn2C [Compound 2′, reference compound] | 63 nM | – | –
Cc1c[nH]c2nccc(-c3cc(N4CCOC[C@H]4C)c4ccn(S(C)(=O)=O)c4n3)c12 [Compound 6, (R)-3-methyl-4-(3-methyl-1′-(methylsulfonyl)-1H,1′H-[4,6′-dipyrrolo[2,3-b]pyridin]-4′-yl)morpholine] | 188 nM | – | –
C[C@@H]1COCCN1c1cc(-c2cn[nH]c2)nc2c1ccn2S(C)(=O)=O [Compound 10, (R)-3-methyl-4-(1-(methylsulfonyl)-6-(1H-pyrazol-4-yl)-1H-pyrrolo[2,3-b]pyridin-4-yl)morpholine] | 843 nM | – | –
C[C@@H]1COCCN1c1nc(-c2cncc3[nH]ccc23)nc2c1ccn2C [Compound 3′, reference compound] | 31 nM | – | –
C[C@@H]1COCCN1c1cc(-c2c[nH]c3ncccc23)nc2c1ccn2S(C)(=O)=O [Compound 5, (R)-3-methyl-4-(1′-(methylsulfonyl)-1H,1′H-[3,6′-dipyrrolo[2,3-b]pyridin]-4′-yl)morpholine] | 534 nM | – | –
C[C@@H]1COCCN1c1cc(-c2ccnc3[nH]ccc23)c2ccn(S(C)(=O)=O)c2n1 [Compound 6′, reference compound] | 268 nM | – | –
C[C@@H]1COCCN1c1cc(-c2cnc3[nH]ccc3c2)nc2c1ccn2S(C)(=O)=O [Compound 4, (R)-3-methyl-4-(1′-(methylsulfonyl)-1H,1′H-[5,6′-dipyrrolo[2,3-b]pyridin]-4′-yl)morpholine] | 208 nM | – | –
